Among the data in patent US20250092014A1, “COMPOUNDS AND METHODS OF ACTIVATING LIPOPROTEIN LIPASE” (Metrea Biosciences, Inc., priority 2021, published 2025) are EC50 values, retold here.

For the assay, the target named is T1, LPL:sGPIHBP1 complex (Homo sapiens, UniProt P06858).
T1 sequence (P06858 28-475): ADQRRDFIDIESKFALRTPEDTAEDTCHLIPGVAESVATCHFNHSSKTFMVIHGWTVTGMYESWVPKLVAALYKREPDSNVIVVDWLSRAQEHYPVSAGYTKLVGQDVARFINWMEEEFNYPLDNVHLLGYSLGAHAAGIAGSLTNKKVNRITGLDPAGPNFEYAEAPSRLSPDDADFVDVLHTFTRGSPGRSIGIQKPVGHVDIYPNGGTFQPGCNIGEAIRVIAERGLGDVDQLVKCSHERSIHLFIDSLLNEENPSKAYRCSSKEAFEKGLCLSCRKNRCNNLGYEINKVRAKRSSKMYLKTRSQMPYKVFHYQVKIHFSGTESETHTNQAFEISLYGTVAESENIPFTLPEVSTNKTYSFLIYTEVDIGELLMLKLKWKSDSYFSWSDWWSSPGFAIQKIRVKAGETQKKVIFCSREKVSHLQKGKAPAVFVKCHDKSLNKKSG
T1 sequence (Q8IV16 21-151 partner limits assumed): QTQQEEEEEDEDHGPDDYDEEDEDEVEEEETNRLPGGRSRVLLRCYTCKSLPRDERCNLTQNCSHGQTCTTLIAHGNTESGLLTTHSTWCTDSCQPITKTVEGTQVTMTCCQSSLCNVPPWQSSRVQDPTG
The experiment in a line: RB assay (LPL:sGPIHBP1 pre-incubated with ANGPTL4, RB substrate). The following applies: read-out: RB qAC50. The format is biochemical. The procedure: The assay was performed in black 1536-well plates using purified proteins. To identify compounds that stimulate LPL activity either by directly activating LPL or by inhibiting the antagonist ANGPTL4, the LPL:sGPIHBP1 complex was pre-incubated with ANGPTL4 to decrease LPL activity by 80%. After a 60 min pre-incubation, the reaction was started by adding the RB substrate. 30 min after RB addition, the enzymatic reaction was stopped using SDS. Fluorescence intensity was measured 2 h after stopping the reaction.
20 or 40 nl of compound solution in 100% DMSO were placed in test plate. Then was added LPL:sGPIHBP1 to all wells (diluted in assay buffer to 5 nM; 2 μl/well). This was followed by an addition of ANGPTL4 to compounds and neutral controls (diluted in assay buffer to 20 nM; 1 μl/well). A buffer solution was added to the stimulator control (1 μl/well). The plates were then centrifuged and pre-incubated for 60 min at RT. The reaction was started by adding substrate to all wells (diluted in assay buffer to 40 μM, 1 μl/well). The plated were centrifuged (800 rpm for 1 min) and incubated 30 min at RT (=reaction time). The reaction was stopped by adding SDS to all wells (diluted in water to 2.5%, 2 μl/well); incubated 2 h at RT. The fluorescence intensity (ex 540 nm/em 590 nm) was measured on a Pherastar (BMG) using 5 flashes.
On to `O=C(O)Cc1cc(F)ccc1NC(=O)c1ccc(N2CC3CCC2C3)c(NC(=O)c2nn(CC(F)(F)F)c3ccccc23)c1` (racemic) [Example 58], for which the EC50 was 18 µM.
Turning to `O=C(O)Cc1cc(Cl)ccc1NC(=O)c1ccc(N2CCCCC2)c(NC(=O)c2nn(CC(F)(F)F)c3ccccc23)c1` [Compound 23, 2-(5-chloro-2-(4-(piperidin-1-yl)-3-(1-(2,2,2-trifluoroethyl)-1H-indazole-3-carboxamido)benzamido)phenyl)acetic acid], the EC50 was determined as 4.6 µM.
Turning to `O=C(O)Cc1cccc(F)c1NC(=O)c1ccc(N2CCCCC2)c(NC(=O)c2nn(CC(F)(F)F)c3ccccc23)c1` [Compound 24, 2-(3-fluoro-2-(4-(piperidin-1-yl)-3-(1-(2,2,2-trifluoroethyl)-1H-indazole-3-carboxamido)benzamido)phenyl)acetic acid], the EC50 was found to be 3.2 µM.
Consider `O=C(O)Cc1c(F)cccc1NC(=O)c1ccc(N2CCCCC2)c(NC(=O)c2nn(CC(F)(F)F)c3ccccc23)c1` [Compound 37, 2-(2-fluoro-6-(4-(piperidin-1-yl)-3-(1-(2,2,2-trifluoroethyl)-1H-indazole-3-carboxamido)benzamido)phenyl)acetic acid], for which the EC50 came out at 5 µM.
For the compound `O=C(O)Cc1ccc(F)cc1NC(=O)c1ccc(N2CCCCC2)c(NC(=O)c2nn(CC(F)(F)F)c3ccccc23)c1` [Compound 38, 2-(4-fluoro-2-(4-(piperidin-1-yl)-3-(1-(2,2,2-trifluoroethyl)-1H-indazole-3-carboxamido)benzamido)phenyl)acetic acid], the EC50 was 3.6 µM.
Consider `O=C(O)Cc1cc(F)ccc1NC(=O)c1ccc(N2CCC2)c(NC(=O)c2nn(CC(F)(F)F)c3ccccc23)c1` [Compound 39, 2-(2-(4-(azetidin-1-yl)-3-(1-(2,2,2-trifluoroethyl)-1H-indazole-3-carboxamido)benzamido)-5-fluorophenyl)acetic acid], for which the EC50 is above 25 µM.
Under `O=C(O)Cc1cc(F)ccc1NC(=O)c1ccc(N2CCCCC2)c(C(=O)Nc2nn(CC(F)(F)F)c3ccccc23)c1` [Compound 41, 2-(5-fluoro-2-(4-(piperidin-1-yl)-3-((1-(2,2,2-trifluoroethyl)-1H-indazol-3-yl)carbamoyl)benzamido)phenyl)acetic acid] stands 4.8 µM; under `Cc1c(C(=O)Nc2ccc(F)cc2CC(=O)O)ccc(N2CCCCC2)c1NC(=O)c1nn(CC(F)(F)F)c2ccccc12` [Compound 42, 2-(5-fluoro-2-(2-methyl-4-(piperidin-1-yl)-3-(1-(2,2,2-trifluoroethyl)-1H-indazole-3-carboxamido)benzamido)phenyl)acetic acid], above 25 µM.
On to `O=C(O)Cc1cc(F)ccc1NC(=O)c1cc(NC(=O)c2nn(CC(F)(F)F)c3ccccc23)c(N2CCCCC2)cn1` [Compound 43, 2-(5-fluoro-2-(5-(piperidin-1-yl)-4-(1-(2,2,2-trifluoroethyl)-1H-indazole-3-carboxamido)picolinamido)phenyl)acetic acid], for which the EC50 is above 7.1 µM.
Under `O=C(O)Cc1cc(F)ccc1NC(=O)c1cnc(N2CCCCC2)c(NC(=O)c2nn(CC(F)(F)F)c3ccccc23)c1` [Compound 44, 2-(5-fluoro-2-(6-(piperidin-1-yl)-5-(1-(2,2,2-trifluoroethyl)-1H-indazole-3-carboxamido)nicotinamido)phenyl)acetic acid] stands above 25 µM.
Consider `O=C(O)Cc1ccccc1C(=O)Nc1ccc(N2CCCCC2)c(C(=O)Nc2nn(CC(F)(F)F)c3ccccc23)c1` [Compound 51, 2-(2-((4-(piperidin-1-yl)-3-((1-(2,2,2-trifluoroethyl)-1H-indazol-3-yl)carbamoyl)phenyl)carbamoyl)phenyl)acetic acid], for which the EC50 was 4.1 µM.
Under `Cc1cc(N2CCCCC2)c(NC(=O)c2nn(CC(F)(F)F)c3ccccc23)cc1C(=O)Nc1ccc(F)cc1CC(=O)O` [Compound 55, 2-(5-fluoro-2-(2-methyl-4-(piperidin-1-yl)-5-(1-(2,2,2-trifluoroethyl)-1H-indazole-3-carboxamido)benzamido)phenyl)acetic acid] stands 5 µM; under `O=C(O)Cc1cc(F)ccc1NC(=O)c1ccc(N2CCCCC2)c(NC(=O)c2nn(CC3CC3)c3ccccc23)c1` [Compound 94, 2-(2-(3-(1-(cyclopropylmethyl)-1H-indazole-3-carboxamido)-4-(piperidin-1-yl)benzamido)-5-fluorophenyl)acetic acid], 5.9 µM.
On to `CC(C)Cn1nc(C(=O)Nc2cc(C(=O)Nc3ccc(F)cc3CC(=O)O)ccc2N2CCCCC2)c2ccccc21` [Compound 95, 2-(5-fluoro-2-(3-(1-isobutyl-1H-indazole-3-carboxamido)-4-(piperidin-1-yl)benzamido)phenyl)acetic acid], for which the EC50 came out at 5 µM.
Under `O=C(O)Cc1cc(F)ccc1NC(=O)c1ccc(N2CCCCC2)c(NC(=O)c2nn(CC(F)F)c3ccccc23)c1` [Compound 96, 2-(2-(3-(1-(2,2-difluoroethyl)-1H-indazole-3-carboxamido)-4-(piperidin-1-yl)benzamido)-5-fluorophenyl)acetic acid] stands 4.7 µM; under `O=C(O)Cc1cc(F)ccc1NC(=O)c1ccc(N2CCCCC2)c(NC(=O)c2nn(C3CC3)c3ccccc23)c1` [Compound 97, 2-(2-(3-(1-cyclopropyl-1H-indazole-3-carboxamido)-4-(piperidin-1-yl)benzamido)-5-fluorophenyl)acetic acid], 13 µM; under `O=C(O)Cc1cc(F)ccc1NC(=O)c1ccc(N2CCCCC2)c(NC(=O)c2nn(CC3CCC3)c3ccccc23)c1` [Compound 98, 2-(2-(3-(1-(cyclobutylmethyl)-1H-indazole-3-carboxamido)-4-(piperidin-1-yl)benzamido)-5-fluorophenyl)acetic acid], 6.1 µM.
Under `O=C(O)Cc1cc(F)ccc1NC(=O)c1ccc(N2CCCCC2)c(NC(=O)c2nn(CCO)c3ccccc23)c1` [Compound 99, 2-(5-fluoro-2-(3-(1-(2-hydroxyethyl)-1H-indazole-3-carboxamido)-4-(piperidin-1-yl)benzamido)phenyl)acetic acid] stands above 25 µM.
Under `NCCn1nc(C(=O)Nc2cc(C(=O)Nc3ccc(F)cc3CC(=O)O)ccc2N2CCCCC2)c2ccccc21` [Compound 100, 2-(2-(3-(1-(2-aminoethyl)-1H-indazole-3-carboxamido)-4-(piperidin-1-yl)benzamido)-5-fluorophenyl)acetic acid] stands above 25 µM; under `O=C(O)Cc1cc(F)ccc1NC(=O)c1ccc(N2CCCCC2)c(NC(=O)c2nn(CCN3CCCC3)c3ccccc23)c1` [Compound 101, 2-(5-fluoro-2-(4-(piperidin-1-yl)-3-(1-(2-(pyrrolidin-1-yl)ethyl)-1H-indazole-3-carboxamido)benzamido)phenyl)acetic acid], above 25 µM.
As for `N#CCn1nc(C(=O)Nc2cc(C(=O)Nc3ccc(F)cc3CC(=O)O)ccc2N2CCCCC2)c2ccccc21` [Compound 102, 2-(2-(3-(1-(cyanomethyl)-1H-indazole-3-carboxamido)-4-(piperidin-1-yl)benzamido)-5-fluorophenyl)acetic acid], the EC50 stood at 5.1 µM.
Under `O=C(O)Cc1cc(F)ccc1NC(=O)c1ccc(N2CCCCC2)c(NC(=O)c2nn(CC3CCNCC3)c3ccccc23)c1` [Compound 103, 2-(5-fluoro-2-(4-(piperidin-1-yl)-3-(1-(piperidin-4-ylmethyl)-1H-indazole-3-carboxamido)benzamido)phenyl)acetic acid] stands above 25 µM; under `O=C(O)Cc1cc(F)ccc1NC(=O)c1ccc(N2CCCCC2)c(NC(=O)c2nn(CC3CCOCC3)c3ccccc23)c1` [Compound 104, 2-(5-fluoro-2-(4-(piperidin-1-yl)-3-(1-((tetrahydro-2H-pyran-4-yl)methyl)-1H-indazole-3-carboxamido)benzamido)phenyl)acetic acid], 3.2 µM; under `COCCn1nc(C(=O)Nc2cc(C(=O)Nc3ccc(F)cc3CC(=O)O)ccc2N2CCCCC2)c2ccccc21` [Compound 105, 2-(5-fluoro-2-(3-(1-(2-methoxyethyl)-1H-indazole-3-carboxamido)-4-(piperidin-1-yl)benzamido)phenyl)acetic acid], 14 µM.
On to `CC(C)(O)Cn1nc(C(=O)Nc2cc(C(=O)Nc3ccc(F)cc3CC(=O)O)ccc2N2CCCCC2)c2ccccc21` [Compound 106, 2-(5-fluoro-2-(3-(1-(2-hydroxy-2-methylpropyl)-1H-indazole-3-carboxamido)-4-(piperidin-1-yl)benzamido)phenyl)acetic acid], for which the EC50 came to 7.7 µM.
